One assay has as its target WDR5 (Homo sapiens (Human), UniProt P61964). Put plainly: Surface Plasmon Resonance (SPR) assay, KD and residence time. In kind it is binding. To be noted: surface plasmon resonance (SPR) assay; read-out: WDR5 binding affinity (KD). (In general: In SPR one partner is held on a chip, and binding of the other changes the refractive index at the surface.)
By Kd is commonly meant the concentration at which binding is half-saturated. Turning to `C[C@@H]1CN(c2cc(F)c(C3=CCN(c4ncc(C=O)cn4)CC3)cc2NC(=O)c2c[nH]c(=O)cc2C(F)(F)F)C[C@H](C)N1C` [Example 369, N-[4-fluoro-5-[1-(5-formylpyrimidin-2-yl)-3,6-dihydro-2H-pyridin-4-yl]-2-[(3R,5S)-3,4,5-trimethylpiperazin-1-yl]phenyl]-6-oxo-4-(trifluoromethyl)-1H-pyridine-3-carboxamide], the Kd was found to be 0.685 nM.

Turning to `C[C@@H]1CN(c2cc(F)c(-c3cnc(N(C)C4CCOCC4)nc3)cc2NC(=O)c2c[nH]c(=O)cc2C(F)(F)F)C[C@H](C)N1C` [Example 371, N-[4-fluoro-5-[2-[methyl(oxan-4-yl)amino]pyrimidin-5-yl]-2-[(3R,5S)-3,4,5-trimethylpiperazin-1-yl]phenyl]-6-oxo-4-(trifluoromethyl)-1H-pyridine-3-carboxamide], the Kd is 0.59 nM.

In the case of `C[C@@H]1CN(c2cc(F)c(C3=CCCN(C(=O)N(C)C)C3)cc2NC(=O)c2c[nH]c(=O)cc2C(F)(F)F)C[C@H](C)N1C` [Example 372, N-[5-[1-(dimethylcarbamoyl)-3,6-dihydro-2H-pyridin-5-yl]-4-fluoro-2-[(3R,5S)-3,4,5-trimethylpiperazin-1-yl]phenyl]-6-oxo-4-(trifluoromethyl)-1H-pyridine-3-carboxamide], the Kd was 1.75 nM.

As to `C[C@@H]1CN(c2cc(F)c(C3=CCCN(C(=O)N4CCCC4)C3)cc2NC(=O)c2c[nH]c(=O)cc2C(F)(F)F)C[C@H](C)N1C` [Example 374, N-[4-fluoro-5-[1-(pyrrolidine-1-carbonyl)-3,6-dihydro-2H-pyridin-5-yl]-2-[(3R,5S)-3,4,5-trimethylpiperazin-1-yl]phenyl]-6-oxo-4-(trifluoromethyl)-1H-pyridine-3-carboxamide], the Kd was 1.15 nM.

On to `COc1cnc(N2CCC=C(c3cc(NC(=O)c4c[nH]c(=O)cc4C(F)(F)F)c(N4C[C@@H](C)N(C)[C@@H](C)C4)cc3F)C2)nc1` [Example 375, N-[4-fluoro-5-[1-(5-methoxypyrimidin-2-yl)-3,6-dihydro-2H-pyridin-5-yl]-2-[(3R,5S)-3,4,5-trimethylpiperazin-1-yl]phenyl]-6-oxo-4-(trifluoromethyl)-1H-pyridine-3-carboxamide], for which the Kd came to 0.688 nM.

For the compound `Cc1cnc(N2CCC=C(c3cc(NC(=O)c4c[nH]c(=O)cc4C(F)(F)F)c(N4C[C@@H](C)N(C)[C@@H](C)C4)cc3F)C2)nc1` [Example 376, N-[4-fluoro-5-[1-(5-methylpyrimidin-2-yl)-3,6-dihydro-2H-pyridin-5-yl]-2-[(3R,5S)-3,4,5-trimethylpiperazin-1-yl]phenyl]-6-oxo-4-(trifluoromethyl)-1H-pyridine-3-carboxamide], the Kd stood at 0.673 nM.

`C[C@@H]1CN(c2cc(F)c(C3=CCCN(c4ncc(F)cn4)C3)cc2NC(=O)c2c[nH]c(=O)cc2C(F)(F)F)C[C@H](C)N1C` [Example 377, N-[4-fluoro-5-[1-(5-fluoropyrimidin-2-yl)-3,6-dihydro-2H-pyridin-5-yl]-2-[(3R,5S)-3,4,5-trimethylpiperazin-1-yl]phenyl]-6-oxo-4-(trifluoromethyl)-1H-pyridine-3-carboxamide]: the Kd came to 1.3 nM.

Regarding `C[C@@H]1CN(c2cc(F)c(-c3cnc(N4CCN(C)CC4)nc3)cc2NC(=O)c2ccc(F)cc2C(F)(F)F)C[C@H](C)N1C` [Example 379, 4-fluoro-N-[4-fluoro-5-[2-(4-methylpiperazin-1-yl)pyrimidin-5-yl]-2-[(3R,5S)-3,4,5-trimethylpiperazin-1-yl]phenyl]-2-(trifluoromethyl)benzamide], the Kd stood at 0.933 nM.

With `C[C@@H]1CN(c2cc(F)c(-c3cnc(N(C)C)nc3)cc2NC(=O)c2ccc(F)cc2C(F)(F)F)C[C@H](C)N1C` [Example 380, N-[5-[2-(dimethylamino)pyrimidin-5-yl]-4-fluoro-2-[(3R,5S)-3,4,5-trimethylpiperazin-1-yl]phenyl]-4-fluoro-2-(trifluoromethyl)benzamide], the Kd came to 1.7 nM.

For `C[C@@H]1CN(c2ncc(-c3cc(NC(=O)c4ccc(F)cc4C(F)(F)F)c(N4C[C@@H](C)N(C)[C@@H](C)C4)cc3F)cn2)C[C@H](C)N1C` [Example 381, 4-fluoro-N-[4-fluoro-2-[(3R,5S)-3,4,5-trimethylpiperazin-1-yl]-5-[2-[(3R,5S)-3,4,5-trimethylpiperazin-1-yl]pyrimidin-5-yl]phenyl]-2-(trifluoromethyl)benzamide], the Kd was 0.31 nM.

With `C[C@@H]1CN(c2cc(F)c(-c3ccc(N4CCOCC4)nn3)cc2NC(=O)c2c[nH]c(=O)cc2C(F)(F)F)C[C@H](C)N1C` [Example 384, N-[4-fluoro-5-(6-morpholin-4-ylpyridazin-3-yl)-2-[(3R,5S)-3,4,5-trimethylpiperazin-1-yl]phenyl]-6-oxo-4-(trifluoromethyl)-1H-pyridine-3-carboxamide], the Kd came out at 1.53 nM.

Turning to `C[C@@H]1CN(c2ncc(-c3cc(NC(=O)c4c[nH]c(=O)cc4C(F)F)c(N4C[C@@H](C)N(C)[C@@H](C)C4)cc3F)cn2)C[C@H](C)O1` [Example 385, 4-(difluoromethyl)-N-[4-fluoro-5-[2-[(2R,6S)-2,6-dimethylmorpholin-4-yl]pyrimidin-5-yl]-2-[(3S,5R)-3,4,5-trimethylpiperazin-1-yl]phenyl]-6-oxo-1H-pyridine-3-carboxamide], the Kd is 0.72 nM.

For `C[C@@H]1CN(c2ncc(-c3cc(NC(=O)c4c[nH]c(=O)cc4C(F)F)c(N4C[C@@H](C)N(C)[C@@H](C)C4)cc3F)cn2)CCO1` [Example 386, 4-(difluoromethyl)-N-[4-fluoro-5-[2-[(2R)-2-methylmorpholin-4-yl]pyrimidin-5-yl]-2-[(3R,5S)-3,4,5-trimethylpiperazin-1-yl]phenyl]-6-oxo-1H-pyridine-3-carboxamide], the Kd is 1.49 nM.

Turning to `C[C@@H]1CN(c2ncc(-c3cc(NC(=O)c4c[nH]c(=O)cc4C(F)(F)F)c(N4C[C@@H](C)N(C)[C@@H](C)C4)cc3F)cn2)CCO1` [Example 388, N-[4-fluoro-5-[2-[(2R)-2-methylmorpholin-4-yl]pyrimidin-5-yl]-2-[(3R,5S)-3,4,5-trimethylpiperazin-1-yl]phenyl]-6-oxo-4-(trifluoromethyl)-1H-pyridine-3-carboxamide], the Kd worked out at 0.788 nM.

Turning to `C[C@@H]1CN(c2cc(F)c(C3=CCCN(c4ncccn4)C3)cc2NC(=O)c2cn(C)c(=O)cc2C(F)(F)F)C[C@H](C)N1C` [Example 391, N-[4-fluoro-5-(1-pyrimidin-2-yl-3,6-dihydro-2H-pyridin-5-yl)-2-[(3R,5S)-3,4,5-trimethylpiperazin-1-yl]phenyl]-1-methyl-6-oxo-4-(trifluoromethyl)pyridine-3-carboxamide], the Kd came to 4.27 nM.

With `C[C@@H]1CN(c2cc(F)c(N3CCN(Cc4ccc(F)cc4)CC3)cc2NC(=O)c2c[nH]c(=O)cc2C(F)(F)F)C[C@H](C)N1C` [Example 392, N-[4-fluoro-5-[4-[(4-fluorophenyl)methyl]piperazin-1-yl]-2-[(3R,5S)-3,4,5-trimethylpiperazin-1-yl]phenyl]-6-oxo-4-(trifluoromethyl)-1H-pyridine-3-carboxamide], the Kd was 8.08 nM.

`C[C@@H]1CN(c2cc(F)c(N3CCN(c4ncccn4)CC3)cc2NC(=O)c2c[nH]c(=O)cc2C(F)(F)F)C[C@H](C)N1C` [Example 393, N-[4-fluoro-5-(4-pyrimidin-2-ylpiperazin-1-yl)-2-[(3R,5S)-3,4,5-trimethylpiperazin-1-yl]phenyl]-6-oxo-4-(trifluoromethyl)-1H-pyridine-3-carboxamide]: the Kd was 13.3 nM.

Consider `C[C@@H]1CN(c2cc(F)c(C3=CCN(c4ncc(CO)cn4)CC3)cc2NC(=O)c2c[nH]c(=O)cc2C(F)(F)F)C[C@H](C)N1C` [Example 394, N-[4-fluoro-5-[1-[5-(hydroxymethyl)pyrimidin-2-yl]-3,6-dihydro-2H-pyridin-4-yl]-2-[(3R,5S)-3,4,5-trimethylpiperazin-1-yl]phenyl]-6-oxo-4-(trifluoromethyl)-1H-pyridine-3-carboxamide], for which the equilibrium dissociation constant (Kd) is 0.775 nM.

Turning to `C[C@@H]1CN(c2ncc(-c3cc(NC(=O)c4c[nH]c(=O)cc4C(F)F)c(N4CCN(C)[C@@H](C)C4)cc3F)cn2)CCO1` [Example 396, 4-(difluoromethyl)-N-[4-fluoro-2-[(3S)-3,4-dimethylpiperazin-1-yl]-5-[2-[(2R)-2-methylmorpholin-4-yl]pyrimidin-5-yl]phenyl]-6-oxo-1H-pyridine-3-carboxamide], the Kd was determined as 0.564 nM.

The same assay, now with this note: surface plasmon resonance (SPR); read-out: WDR5 binding affinity (KD).
Consider `C[C@@H]1CN(c2cc(F)c(-c3ccnc(S(C)(=O)=O)n3)cc2NC(=O)c2c[nH]c(=O)cc2C(F)(F)F)C[C@H](C)N1C` [Example 399, N-[4-fluoro-5-(2-methylsulfonylpyrimidin-4-yl)-2-[(3R,5S)-3,4,5-trimethylpiperazin-1-yl]phenyl]-6-oxo-4-(trifluoromethyl)-1H-pyridine-3-carboxamide], for which the Kd stood at 4.58 nM.

On to `C[C@@H]1CN(c2cc(F)c(C3=CCN(c4ncc(C#N)cn4)CC3)cc2NC(=O)c2c[nH]c(=O)cc2C(F)(F)F)C[C@H](C)N1C` [Example 404, N-[5-[1-(5-cyanopyrimidin-2-yl)-3,6-dihydro-2H-pyridin-4-yl]-4-fluoro-2-[(3R,5S)-3,4,5-trimethylpiperazin-1-yl]phenyl]-6-oxo-4-(trifluoromethyl)-1H-pyridine-3-carboxamide], for which the Kd is 1 nM.

Regarding `C[C@@H]1CN(c2cc(F)c(C3=CCN(c4ncc(CN(C)C)cn4)CC3)cc2NC(=O)c2c[nH]c(=O)cc2C(F)(F)F)C[C@H](C)N1C` [Example 405, N-[5-[1-[5-[(dimethylamino)methyl]pyrimidin-2-yl]-3,6-dihydro-2H-pyridin-4-yl]-4-fluoro-2-[(3R,5S)-3,4,5-trimethylpiperazin-1-yl]phenyl]-6-oxo-4-(trifluoromethyl)-1H-pyridine-3-carboxamide], the Kd came to 0.095 nM.

As to `C[C@@H]1CN(c2cc(F)c(C3=CCN(c4ncc(CN5CCOCC5)cn4)CC3)cc2NC(=O)c2c[nH]c(=O)cc2C(F)(F)F)C[C@H](C)N1C` [Example 406, N-[4-fluoro-5-[1-[5-(morpholin-4-ylmethyl)pyrimidin-2-yl]-3,6-dihydro-2H-pyridin-4-yl]-2-[(3R,5S)-3,4,5-trimethylpiperazin-1-yl]phenyl]-6-oxo-4-(trifluoromethyl)-1H-pyridine-3-carboxamide], the Kd was determined as 0.457 nM.

The values above are taken from US11319299B2, “Substituted carboxamides as inhibitors of WDR5 protein-protein binding” (PROPELLON THERAPEUTICS INC., priority 2016, dated 2022).
